Values joined by “and” are separate entries in the source; they are usually repeats but may differ in a detail not shown here. Identical values can stand only once. Each block holds one compound with its values, some of them ahead of it.
Columns and labels:
PSMA antigen = biological target: T1, PSMA antigen (Homo sapiens, UniProt Q04609); assay: Saturation radioligand binding assay on LNCaP (PSMA positive) and PC3 (PSMA negative) cell membranes; conditions: for Kd: LNCaP cell membranes, 2 h, 37 °C; for Specific Binding: total binding on LNCaP minus non-specific binding on PC3 membranes
T1 construct: PSMA antigen expressed on LNCaP cell membranes; endogenous in cells; host or cells: LNCaP cell membranes (PC3 membranes as PSMA-negative control)
T1 sequence (Q04609 whole entry): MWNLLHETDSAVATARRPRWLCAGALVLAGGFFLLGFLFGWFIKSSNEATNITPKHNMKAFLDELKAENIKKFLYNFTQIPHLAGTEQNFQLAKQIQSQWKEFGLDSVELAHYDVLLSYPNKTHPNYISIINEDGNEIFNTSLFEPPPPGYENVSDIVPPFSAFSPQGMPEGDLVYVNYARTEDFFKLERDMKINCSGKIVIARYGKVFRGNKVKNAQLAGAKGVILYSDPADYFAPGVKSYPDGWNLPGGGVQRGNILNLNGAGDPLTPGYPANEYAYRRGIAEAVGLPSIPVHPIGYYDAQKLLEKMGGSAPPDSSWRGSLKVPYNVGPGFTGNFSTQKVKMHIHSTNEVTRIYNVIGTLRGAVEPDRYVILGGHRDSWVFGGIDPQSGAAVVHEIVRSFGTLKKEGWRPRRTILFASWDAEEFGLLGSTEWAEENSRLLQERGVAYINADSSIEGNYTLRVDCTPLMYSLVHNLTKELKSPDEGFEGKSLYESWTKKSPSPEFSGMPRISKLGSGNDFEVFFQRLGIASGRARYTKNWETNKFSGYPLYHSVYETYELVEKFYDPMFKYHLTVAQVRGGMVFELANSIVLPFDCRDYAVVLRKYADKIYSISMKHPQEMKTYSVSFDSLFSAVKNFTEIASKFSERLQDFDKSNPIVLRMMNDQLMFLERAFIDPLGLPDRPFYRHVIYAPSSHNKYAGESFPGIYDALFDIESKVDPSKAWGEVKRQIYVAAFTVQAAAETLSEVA
Experimental: The equilibrium constant (KD) was determined by a saturation binding experiment performed in PSMA positive LNCaP and PSMA negative PC3 cell membranes isolated according to the procedure developed by Fichna et al.. The 50 mcL of LNCaP and PC3 cell membranes were seeded on special MultiScreen™ 96 well filter plates (Merck, Warsaw, Poland) and incubated for 2 h with increasing concentration of [^177Lu]Lu-PSMA-D4, [^90Y]Y-PSMA-D4, and […] (0.016–194 nM) at 37 °C. After incubation, the unbound radiocomplexes were filtered under vacuum, and the membranes were washed twice using PBS. The filters containing membranes with the attached radiotracer were extruded into tubes using MultiScreen Multile Punch (Merck). The number of associated inhibitors was determined by measuring the radioactivity of squeezed filters using Wallac Wizard 1470 γ counter. The KD and Bmax were calculated by nonlinear regression using the GraphPad Prism statistic program.

LNCaP tumor-bearing mice = assay: Ex vivo biodistribution in mice bearing LNCaP tumor
Experimental: An experimental tumor murine model was induced using LNCaP cell, which grew to 80–90% confluence before trypsinization and formulation in Matrixgel™ Basement Membrane Matrix (Bedford, MA, USA) for implantation into mice. The mice were subcutaneously injected in the shoulder with 200 mcL bolus containing a suspension of 10^6 freshly harvested cell line LNCaP in Matrixgel™. This procedure was performed under anaesthesia with 2% isoflurane. The animals were kept under pathogen-free condition, and experiments were performed 2–3 weeks later when a tumor reached a volume of approximately 150 ± 60 mm^3. Then, the animals were randomized into two groups (25 mice per group, five mice per time point): Group 1, treated with a single intravenous injection of [^90Y]Y-PSMA-D4 (0.1 mL, 0.1 mcg, 15.5 MBq, SA 16.7 GBq mg^−1 = 17.2 GBq mcmol^−1) and Group 2, treated with a single intravenous injection of [^47Sc]Sc-PSMA-D4 (0.1 mL, 0.19 mcg, 10 MBq, SA 4.8 GBq mg^−1 = 4.57 GBq mcmol^−1).
At 1, 2, 4, 6, 24, and 48 h after injection, the animals were euthanized by cervical dislocation and dissected. Selected organs and tissues were assayed for their radioactivity and weighted. The physiological distribution was calculated and expressed in terms of the percentage of administrated radioactivity found in each of the selected organs or tissues per gram (%ID g^−1).
Results are provided as mean ± SD. The results of physiological distribution are presented as a percentage of the dose administered per gram of tissue (%ID g^−1) as average value with standard deviation (%ID g^−1; mean ± standard deviation (SD)) with n representing the number of animals per group. Data were statistically analyzed using GraphPad Prism version 8.0.0 for Window.

[1] = Blood pharmacokinetics, one-phase decay model, LNCaP tumor-bearing mice; type: in vivo; conditions: i.v.
Experimental: The pharmacokinetic analysis of the [^47Sc]Sc-PSMA-D4 was based on the curves of the %ID g^−1 accumulated in the blood. The pharmacokinetic parameters were determined according to a one-phase decay model. The following parameters were used: K (rate constant) and half-life calculated as ln(2)/K.
For blood activity data, a one-phase exponential decay model was used to model the percentage of remaining activity (%ID g^−1) as a time post-injection function.

[2] = Lipophilicity determination (logD), shake-flask method; type: physicochemical; conditions: n-octanol / PBS pH 7.4, shake-flask
Experimental: The partition coefficient logD of the radioligands was determined by the shake-flask method. The solution of 10 to 50 MBq of radiolabeled PSMA ligands (D-4, 617, 11, I&T) in 1.0 mL of phosphate-buffered saline (PBS, pH 7.4) was added to 1.0 mL of presaturated n-octanol solution (n = 3). Vials were shaken vigorously for 10 min. To achieve quantitative phase separation, the vials were centrifuged at 1600 rpm for 5 min. The radioactivity concentration in a defined volume of both the aqueous and the organic phase in six replicates each was measured in a γ-counter (Wizard 1470, Wallac, Turku, Finland). The partition coefficient was calculated as the logarithm of the ratio between counts per minute (cpm) measured in the n-octanol phase to the PBS phase counts.

LNCaP cells = assay: Cell uptake (total binding) and internalization in LNCaP cells; type: cell-based, human; conditions: 37 °C, 2 h
Experimental: To determine cell uptake and internalization of [^177Lu]Lu-PSMA-D4 and [^90Y]Y-PSMA-D4, LNCaP cells (5 × 10^5 cells well^−1) were incubated in un-supplemented RPMI 1640 medium with one concentration of tested radioligands on 12-well plates in 37 °C per 2 h. After the appropriate time, the medium was removed, and cells were washed twice using phosphate buffer saline (PBS, IITD PAN, Wroclaw, Poland). The cells were treated twice with 1 mL of 50 mM glycine in 0.1 M NaCl at a pH of 2.8 and incubated for 5 min at room temperature to collect extracellularly bound compound. The internalization was determined by measuring the radioactivity of 1mL of 1 M NaOH used for cell lysis. Total binding was calculated as a sum of the membrane and internalized fractions measured using Wallac Wizard 1470 γ counter. As a control, [^177Lu]Lu-PSMA-617 and [^68Ga]Ga-PSMA-11 were used.

[3] = Blood pharmacokinetics, one-phase model, healthy rats; type: in vivo; conditions: healthy rats (data not presented)

- Kd (PSMA antigen): 3.4 ± 2 nM
- Specific Binding (PSMA antigen): 98.8 ± 0.9%
- T/B (ratio tumor to blood) (LNCaP tumor-bearing mice; 1 h after i.v. injection): 31.6
- T/K (ratio tumor to kidneys) (LNCaP tumor-bearing mice; 1 h after i.v. injection): 1.0
- T/M (ratio tumor to muscle) (LNCaP tumor-bearing mice; 1 h after i.v. injection): 135.2
- blood (LNCaP tumor-bearing mice; 1 h after i.v. injection): 0.29 ± 0.08 %ID g^−1
- kidneys (LNCaP tumor-bearing mice; 1 h after i.v. injection): 9.46 ± 1.44 %ID g^−1
- large intestine (LNCaP tumor-bearing mice; 1 h after i.v. injection): 0.09 ± 0.03 %ID g^−1
- liver (LNCaP tumor-bearing mice; 1 h after i.v. injection): 0.13 ± 0.02 %ID g^−1
- muscle (LNCaP tumor-bearing mice; 1 h after i.v. injection): 0.10 ± 0.06 %ID g^−1
- small intestine (LNCaP tumor-bearing mice; 1 h after i.v. injection): 0.35 ± 0.19 %ID g^−1
- spleen (LNCaP tumor-bearing mice; 1 h after i.v. injection): 0.52 ± 0.19 %ID g^−1
- stomach (LNCaP tumor-bearing mice; 1 h after i.v. injection): 0.23 ± 0.09 %ID g^−1
- tumor (LNCaP tumor-bearing mice; 1 h after i.v. injection): 9.24 ± 5.13 %ID g^−1
- urine (LNCaP tumor-bearing mice; 1 h after i.v. injection): 89.23 ± 2.63 %ID
- T/B (ratio tumor to blood) (LNCaP tumor-bearing mice; 4 h after i.v. injection): 120.9
- T/K (ratio tumor to kidneys) (LNCaP tumor-bearing mice; 4 h after i.v. injection): 4.3
- T/M (ratio tumor to muscle) (LNCaP tumor-bearing mice; 4 h after i.v. injection): 24.3
- blood (LNCaP tumor-bearing mice; 4 h after i.v. injection): 0.08 ± 0.04 %ID g^−1
- kidneys (LNCaP tumor-bearing mice; 4 h after i.v. injection): 2.16 ± 0.86 %ID g^−1
- large intestine (LNCaP tumor-bearing mice; 4 h after i.v. injection): 0.70 ± 0.48 %ID g^−1
- liver (LNCaP tumor-bearing mice; 4 h after i.v. injection): 0.08 ± 0.04 %ID g^−1
- muscle (LNCaP tumor-bearing mice; 4 h after i.v. injection): 0.39 ± 0.17 %ID g^−1
- small intestine (LNCaP tumor-bearing mice; 4 h after i.v. injection): 0.41 ± 0.30 %ID g^−1
- spleen (LNCaP tumor-bearing mice; 4 h after i.v. injection): 0.57 ± 0.31 %ID g^−1
- stomach (LNCaP tumor-bearing mice; 4 h after i.v. injection): 0.39 ± 0.17 %ID g^−1
- tumor (LNCaP tumor-bearing mice; 4 h after i.v. injection): 9.22 ± 2.21 %ID g^−1
- urine (LNCaP tumor-bearing mice; 4 h after i.v. injection): 93.42 ± 2.07 %ID
- T/B (ratio tumor to blood) (LNCaP tumor-bearing mice; 6 h after i.v. injection): 207.6
- T/K (ratio tumor to kidneys) (LNCaP tumor-bearing mice; 6 h after i.v. injection): 6.1
- T/M (ratio tumor to muscle) (LNCaP tumor-bearing mice; 6 h after i.v. injection): 251.0
- blood (LNCaP tumor-bearing mice; 6 h after i.v. injection): 0.04 ± 0.01 %ID g^−1
- kidneys (LNCaP tumor-bearing mice; 6 h after i.v. injection): 1.42 ± 0.28 %ID g^−1
- large intestine (LNCaP tumor-bearing mice; 6 h after i.v. injection): 0.69 ± 0.17 %ID g^−1
- liver (LNCaP tumor-bearing mice; 6 h after i.v. injection): 0.06 ± 0.01 %ID g^−1
- muscle (LNCaP tumor-bearing mice; 6 h after i.v. injection): 0.03 ± 0.02 %ID g^−1
- small intestine (LNCaP tumor-bearing mice; 6 h after i.v. injection): 0.11 ± 0.07 %ID g^−1
- spleen (LNCaP tumor-bearing mice; 6 h after i.v. injection): 0.08 ± 0.04 %ID g^−1
- stomach (LNCaP tumor-bearing mice; 6 h after i.v. injection): 0.08 ± 0.09 %ID g^−1
- tumor (LNCaP tumor-bearing mice; 6 h after i.v. injection): 8.65 ± 3.19 %ID g^−1
- urine (LNCaP tumor-bearing mice; 6 h after i.v. injection): 94.89 ± 1.34 %ID
- T/B (ratio tumor to blood) (LNCaP tumor-bearing mice; 24 h after i.v. injection): 467.3
- T/K (ratio tumor to kidneys) (LNCaP tumor-bearing mice; 24 h after i.v. injection): 18.4
- T/M (ratio tumor to muscle) (LNCaP tumor-bearing mice; 24 h after i.v. injection): 229.0
- blood (LNCaP tumor-bearing mice; 24 h after i.v. injection): 0.01 ± 0.01 %ID g^−1
- kidneys (LNCaP tumor-bearing mice; 24 h after i.v. injection): 0.29 ± 0.09 %ID g^−1
- large intestine (LNCaP tumor-bearing mice; 24 h after i.v. injection): 0.12 ± 0.12 %ID g^−1
- liver (LNCaP tumor-bearing mice; 24 h after i.v. injection): 0.03 ± 0.01 %ID g^−1
- muscle (LNCaP tumor-bearing mice; 24 h after i.v. injection): 0.02 ± 0.02 %ID g^−1
- small intestine (LNCaP tumor-bearing mice; 24 h after i.v. injection): 0.34 ± 0.18 %ID g^−1
- spleen (LNCaP tumor-bearing mice; 24 h after i.v. injection): 0.04 ± 0.01 %ID g^−1
- stomach (LNCaP tumor-bearing mice; 24 h after i.v. injection): 0.05 ± 0.06 %ID g^−1
- tumor (LNCaP tumor-bearing mice; 24 h after i.v. injection): 5.28 ± 3.01 %ID g^−1
- urine (LNCaP tumor-bearing mice; 24 h after i.v. injection): 97.89 ± 1.22 %ID
- T/B (ratio tumor to blood) (LNCaP tumor-bearing mice; 48 h after i.v. injection): 78.8
- T/K (ratio tumor to kidneys) (LNCaP tumor-bearing mice; 48 h after i.v. injection): 16.0
- T/M (ratio tumor to muscle) (LNCaP tumor-bearing mice; 48 h after i.v. injection): 66.7
- blood (LNCaP tumor-bearing mice; 48 h after i.v. injection): 0.05 ± 0.03 %ID g^−1
- kidneys (LNCaP tumor-bearing mice; 48 h after i.v. injection): 0.26 ± 0.14 %ID g^−1
- large intestine (LNCaP tumor-bearing mice; 48 h after i.v. injection): 1.63 ± 0.31 %ID g^−1
- liver (LNCaP tumor-bearing mice; 48 h after i.v. injection): 0.04 ± 0.01 %ID g^−1
- muscle (LNCaP tumor-bearing mice; 48 h after i.v. injection): 0.06 ± 0.06 %ID g^−1
- small intestine (LNCaP tumor-bearing mice; 48 h after i.v. injection): 0.45 ± 0.13 %ID g^−1
- spleen (LNCaP tumor-bearing mice; 48 h after i.v. injection): 0.10 ± 0.09 %ID g^−1
- stomach (LNCaP tumor-bearing mice; 48 h after i.v. injection): 0.03 ± 0.04 %ID g^−1
- tumor (LNCaP tumor-bearing mice; 48 h after i.v. injection): 4.11 ± 1.08 %ID g^−1
- urine (LNCaP tumor-bearing mice; 48 h after i.v. injection): 95.37 ± 1.89 %ID
- blood half-life [1]: 10.4 min and 10.2 min
SMILES: O=C([O-])CN1CCN(CC(=O)[O-])CCN(CC(=O)NCC2CCC(C(=O)NC(Cc3c[nH]c4ccccc34)C(=O)NCCCCC(NC(=O)NC(CCC(=O)O)C(=O)O)C(=O)O)CC2)CCN(CC(=O)[O-])CC1.[47Sc+3] (centres unmarked) [[^47Sc]Sc-PSMA-D4]

SMILES: O=C([O-])CN1CCN(CC(=O)[O-])CCN(CC(=O)NCC2CCC(C(=O)NC(Cc3c[nH]c4ccccc34)C(=O)NCCCCC(NC(=O)NC(CCC(=O)O)C(=O)O)C(=O)O)CC2)CCN(CC(=O)[O-])CC1.[177Lu+3] (centres unmarked) [[^177Lu]Lu-PSMA-D4]
- logD [2]: −5.16 ± 0.07
- Internalization (LNCaP cells): 37.0 ± 3.3%
- Total Binding (LNCaP cells): 10.2%
- Kd (PSMA antigen): 2.4 ± 0.3 nM
- Specific Binding (PSMA antigen): 99.1 ± 0.3%
- blood half-life [3]: 33 min
